From patent US8895753B2, “S1P receptor modulating agent” (Meiji Seika Pharma Co., Ltd., priority 2011, dated 2014)
pEC50: −log10 of the molar value.

Experiments:
enterobacterium = experiment: Stability against enterobacterium (feces / cecum homogenates); format: in vitro ADME; settings: cynomolgus monkey feces and rat cecum homogenates, 3 and 30 μM, 37° C., 24 hours; all conditions
Protocol: A culture medium was added to fresh feces of a cynomolgus monkey and rat cecum to prepare homogenates. To a homogenate was added the compound of the Example 2, or 1-{4-[5-(4-isopropoxyphenyl)-1,2,4-oxadiazol-3-yl]benzyl}azetidine-3-carboxylic acid (the compound of the Example 29 of Non-Patent Document 5) adjusted at a concentration of 3 and 30 μM, and the mixture was anaerobically cultured at 37° C. for 24 hours. After the cultivation, the concentration of the residual compound in the culture medium was measured on LC-MS.

Human S1P3 receptor = Human S1P3 receptor (Homo sapiens, UniProt Q99500); experiment: Agonist activity at a S1P3 receptor (reporter assay, EDG3-Galpha15-NFAT-bla HEK293T cells); format: cell-based
Protocol: Human S1P3 receptor gene recombinant EDG3-Galpha15-NFAT-bla HEK293T cells (Life Technologies Japan Ltd.) were plated into a 384-well clear bottom black plate treated with poly-D-lysine at a density of 1000 cells/32 μL/well, and the plate was cultured at 37° C. in a 5% CO2 incubator for 16-24 hours. A culture medium containing each test compound prepared as a 5× concentrate was added at 8 μL/well, and the plate was incubated at 37° C. in a 5% CO2 incubator for 5 hours. The substrate (LiveBLAzer™-FRET B/G substrate (CCF4-AM), Life Technologies Japan Ltd.) was prepared as a 6× concentrate was added at 8 μL to each well, and the plate was incubated at room temperature for 2 hours in the dark. The fluorescence intensity of the test samples was measured using a bottom-reading fluorescence microplate reader at one excitation wavelength and 2 wavelengths for fluorescence emission (Ex409 nm, Em460 nm, Em530 nm). The intensity ratio of fluorescence at 460 nm/530 nm was calculated for the compound at each well. The maximum response ratio confirmed from the dose response of S1P was expressed as 100%. The concentration of test compounds required to stimulate 50% of its maximal activation was computed as EC50 (nM).

electrocardiogram = experiment: Evaluation of electrocardiogram in a rat (under anesthesia); format: in vivo; settings: anesthetized rat, intravenous 0.1 mg/kg body weight
Protocol: Under anesthesia, femoral artery was cannulated in a 7-11-week-old male SD rat (Charles River Laboratories Japan Inc.) that had been reared for more than one week, connected to a polygraph (NIHON KODEN) via a pressure transducer. Without consciousness, a vehicle (dimethylsulfoxide) or a test compound was intravenously administered. After the administration, blood pressure, the heart rate, and electrocardiogram were monitored for about 10 minutes.

[1] = tested on: experimental autoimmune encephalomyelitis; experiment: Experimental autoimmune encephalomyelitis model; format: in vivo; settings: SJL/J mouse, orally once daily at 1 mg/kg body weight or more
Protocol: An emulsion of PLP139-151/CFA was subcutaneously administered to the upper dorsal region and in the tail of an 8-week-old female SJL/J mouse at a dose of 100 μL/body. At 2 hours and 24 hours after the administration, pertussis toxin was peritoneally administered at a dose of 100 μL/body. Thus, the mouse prepared in this procedure was used as an experimental autoimmune encephalomyelitis model. […] The compound suspended in a solution of 0.5% hydroxypropyl methylcellulose was orally administered by force once daily. The changes in pathological score and body weight were recorded and the results compared to the vehicle-treated group, from which the efficacy of the compounds was evaluated.

Human S1P4 receptor = target: T1, Human S1P4 receptor (Homo sapiens, UniProt O95977); experiment: Agonist activity at a S1P4 receptor (reporter assay, EDG6-bla/U2OS cells); format: cell-based
T1 sequence (O95977 1-384): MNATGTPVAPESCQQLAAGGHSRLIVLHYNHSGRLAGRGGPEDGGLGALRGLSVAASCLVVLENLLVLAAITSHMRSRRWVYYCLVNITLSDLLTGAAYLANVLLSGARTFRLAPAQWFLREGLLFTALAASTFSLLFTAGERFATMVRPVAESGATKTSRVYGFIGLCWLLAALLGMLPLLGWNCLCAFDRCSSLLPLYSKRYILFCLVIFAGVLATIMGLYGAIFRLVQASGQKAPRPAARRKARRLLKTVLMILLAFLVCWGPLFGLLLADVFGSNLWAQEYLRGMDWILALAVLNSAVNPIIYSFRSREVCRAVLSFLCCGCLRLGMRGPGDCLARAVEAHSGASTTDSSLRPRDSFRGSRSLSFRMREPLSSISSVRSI
Protocol: Human S1P4 receptor gene recombinant EDG6-bla/U2OS cells (Life Technologies Japan Ltd.) were seeded into each well of a 384-well clear bottom black plate treated with poly-D-lysine at a density of 10000 cells/32 μL/well and cultured at 37° C. in a 5% CO2 incubator for 16 to 24 hours. A culture medium containing each test compound prepared as a 5× concentrate was added at 8 μL/well, and the plate was cultured at 37° C. in a 5% CO2 incubator for 5 hours. The substrate (LiveBLAzer™-FRET B/G substrate (CCF4-AM), Life Technologies Japan Ltd.) prepared as a 6× concentrate was added at 8 μL to each well, and the plate was incubated for 2 hours in the dark. The fluorescence intensity of the test samples was measured using bottom-reading fluorescence microplate reader at one excitation wavelength and 2 wavelengths for fluorescence emission (Ex409 nm, Em460 nm, Em530 nm). The intensity ratio of fluorescence at 460 nm/530 nm was calculated for each well. The maximum response ratio confirmed from the dose response of S1P was expressed as 100%. The concentration of the test compound required to stimulate 50% of its maximal activation was computed as EC50 (nM).

[2] = tested on: electrocardiogram / monophasic action potential (MAP); experiment: Evaluation of cardiovascular system in a guinea pig; format: in vivo; settings: anesthetized guinea pig, 0.1 mg/kg body weight, infusion
Source text: Under anesthesia with 0.5 to 1% of halothane, to a male Hartley guinea-pig (Japan SLC, Inc.) that had been reared for more than one week, a catheter for administration of a drug solution was placed into the left jugular vein, a monophasic action potential (MAP) measurement/pacing catheter was placed into the endothelial lining of the right ventricle, a catheter for measuring blood pressure was placed into the left carotid artery, and the measurement of body surface electrocardiogram (lead II) was conducted. The drug solution was infused for 10 minutes and the measurement was carried out over 60 minutes. Also, 5, 10, 15, 20, 30, 45 and 60 minutes after the administration of the drug solution, pacing was performed (200, 240, 300 bpm), and monophasic action potential (MAP) was measured.

Sequence of Human S1P3 receptor (Q99500 whole entry): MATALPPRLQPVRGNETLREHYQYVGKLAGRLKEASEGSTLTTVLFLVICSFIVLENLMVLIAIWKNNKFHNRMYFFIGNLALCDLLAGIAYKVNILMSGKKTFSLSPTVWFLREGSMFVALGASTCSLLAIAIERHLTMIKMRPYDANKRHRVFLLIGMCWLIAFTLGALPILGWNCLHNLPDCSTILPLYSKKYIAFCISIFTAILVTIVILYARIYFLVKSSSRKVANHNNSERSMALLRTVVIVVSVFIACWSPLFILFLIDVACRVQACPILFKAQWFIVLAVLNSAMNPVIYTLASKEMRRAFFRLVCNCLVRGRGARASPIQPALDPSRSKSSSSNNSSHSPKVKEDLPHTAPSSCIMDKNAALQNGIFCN

SMILES	residual compound after anaerobic culture with homogenate (enterobacterium)	pEC50 (Human S1P3 receptor)	duration of continuous cardiac arrhythmia (AV block) (electrocardiogram) [s]	inhibition of pathological scores [1]	pEC50 (Human S1P4 receptor)	MAP90 prolongation effect [2]	prolonged QT [2]
CC(C)Oc1ccc(-c2cnc(-c3ccc(CN4CC(C(=O)O)C4)cc3)s2)cc1 [Example 2, 1-(4-(5-(4-isopropoxyphenyl)thiazol-2-yl)benzyl)azetidine-3-carboxylic acid]	remained almost completely intact	≤ 5.70	< 10	significantly inhibit	≤ 5.70	not observed	not observed
CC(C)Oc1ccc(-c2cnc(-c3ccc(CN4CC(C(=O)O)C4)cc3)s2)cc1Cl [Example 3, 1-(4-(5-(3-chloro-4-isopropoxyphenyl)thiazol-2-yl)benzyl)azetidine-3-carboxylic acid]		≤ 5.70			≤ 5.70		
